From paper PMC6277555, “Short Symmetric-End Antimicrobial Peptides Centered on β-Turn Amino Acids Unit Improve Selectivity and Stability” (Frontiers in Microbiology, 2018)
Values after ≈ are worked out from the molar mass of the structure shown. No end group written: not given here.

Assays:
[1] = tested on: S. typhimurium ATCC 7731; assay type: cell-based, Salmonella entericaserovar Typhimurium
Protocol: (§1) The minimal inhibitory concentration (MIC) was determined according to a previously described method ([Chou et al., 2016]). Bacteria were cultured overnight to mid-log phase in MHB at 37°C and then diluted to give final concentrations ranging from 2 × 10^5 to 7 × 10^5 CFU/mL. Then, 50 μL of serial twofold dilutions of the peptides were added to each well in 96-well microtiter plates with a mixed solution containing 0.01% acetic acid and 0.2% bovine serum albumin (BSA, Sigma) was used to dissolve and dilute the peptides. Then, equal amounts of bacterial aliquots were incubated with the above peptide solution for 18–24 h at 37°C. The experiment was performed in triplicate using three replicates for each peptide and each bacterium. The broth was employed as a negative control and the broth with microbial cells was used as a positive control. The lowest concentration of peptide that prevented visible turbidity was defined as the MIC.

[2] = tested on: S. aureus ATCC 29213; assay type: cell-based, Staphylococcus aureus; details: for MIC / MIC, CaCl2 / MIC, Control / MIC, FeCl3 / MIC, Heat (100°C) / MIC, KCl / MIC, MgCl2 / MIC, NH4Cl / MIC, NaCl / MIC, ZnCl2: ATCC 29213; for MIC, pH 4.0: ATCC 29213, pH 4; for MIC, pH 6.0: ATCC 29213, pH 6; for MIC, pH 8.0: ATCC 29213, pH 8; for MIC, pH 10.0: ATCC 29213, pH 10
Protocol: as §1, with “18-24” for “18–24”, “MIC. The condition sensitivity of peptides was tested in an MIC assay in different environments, including salt sensitivity, thermal sensitivity and different pH values similar to our previous method ([[…] et al., 2008]; [Ma et al., 2012]). […] For the heat resistance experiments, the peptides were incubated at 100°C for 30 min and cooled on ice for 10 min. […] The determination methods for these MIC assays were same as described above. To test the effects of serum on the antimicrobial activities of the peptides, human serum was dissolved in MHB to reach final concentrations of 25 and 50%. The determination methods for these MIC assays were same as described above.” for “MIC.”

[3] = tested on: B. pyocyaneum ATCC 27853; assay type: cell-based, Bacterium pyocyaneum
Protocol: as §1

[4] = tested on: B. subtilis CMCC 63501; assay type: cell-based, Bacillus subtilis
Protocol: as §1

[5] = tested on: E. coli ATCC25922; assay type: cell-based, Escherichia coli; details: for MIC / MIC, CaCl2 / MIC, Control / MIC, FeCl3 / MIC, Heat (100°C) / MIC, KCl / MIC, MgCl2 / MIC, NH4Cl / MIC, NaCl / MIC, ZnCl2: ATCC25922; for MIC, pH 4.0: ATCC25922, pH 4; for MIC, pH 6.0: ATCC25922, pH 6; for MIC, pH 8.0: ATCC25922, pH 8; for MIC, pH 10.0: ATCC25922, pH 10
Protocol: as §1, with “18-24” for “18–24”, “MIC. The condition sensitivity of peptides was tested in an MIC assay in different environments, including salt sensitivity, thermal sensitivity and different pH values similar to our previous method ([[…] et al., 2008]; [Ma et al., 2012]). […] For the heat resistance experiments, the peptides were incubated at 100°C for 30 min and cooled on ice for 10 min. […] The determination methods for these MIC assays were same as described above. To test the effects of serum on the antimicrobial activities of the peptides, human serum was dissolved in MHB to reach final concentrations of 25 and 50%. The determination methods for these MIC assays were same as described above.” for “MIC.”

[6] = tested on: E. coli UB1005; assay type: cell-based, Escherichia coli
Protocol: as §1

[7] = tested on: S. faecalis ATCC 29212; assay type: cell-based, Streptococcus faecalis
Protocol: as §1

[8] = tested on: S. aureus ATCC 43300; assay type: cell-based, Staphylococcus aureus
Protocol: as §1

[9] = tested on: hRBCs; assay: Hemolytic activity; assay type: cell-based, human; details: peptide concentration resulting in 5% hemolysis of hRBCs; PBS, 1 h, 37°C
Protocol: (§2) The hemolytic activity of the peptides was detected using a previously described modified method ([Wang et al., 2015]). One milliliter of fresh hRBCs was obtained from a healthy donor (Zhihua Wang, Harbin, China) in a polycarbonate tube containing heparin. The collected hRBCs were centrifuged at 1000 × g for 5 min at 4°C and resuspended in PBS buffer (pH 7.2). The hRBCs were washed three times and then incubated with an equal volume of the respective peptide dissolved in PBS for 1 h at 37°C. Then, the hRBC suspension was placed into a 96-well microtiter plater with 50 μL of tested peptide solution at different concentrations and the mixture was incubated for 1 h at 37°C. […] The minimum hemolytic concentrations (MHCs) were defined as the peptide concentrations resulting in 5% hemolysis.

[10] = tested on: S. epidermidis ATCC 12228; assay type: cell-based, Staphylococcus epidermidis
Protocol: as §1

[11] = tested on: S. pullorum C79-13; assay type: cell-based, Salmonella pullorum
Protocol: as §1

[12] = tested on: Gram-negative and Gram-positive bacterial strains; assay: Geometric mean of MICs and therapeutic index; assay type: cell-based
Protocol: as §2, §1

[13] = RP-HPLC retention time as measure of relative hydrophobicity; assay type: physicochemical; details: analytical RP-HPLC; hydrophobicity increases with retention time
Protocol: These peptides' […] identified via matrix-assisted laser desorption/ionization time-of-flight mass spectrometry (MALDI-TOF MS, Linear Scientific Inc., United States), using α-cyano-4-hydroxycinnamic acid as the matrix. […] Quantitative peptides were dissolved in deionized water and stored at -20°C before the assessments. The rest of the peptides were stored as powders at -20°C to prevent peptide degradation. The structures and molecular weights of the peptides were verified by MALDI-TOF MS. […] The relative hydrophobicity of the symmetric-end peptides was reliably reflected by their different HPLC retention times, and the hydrophobicity increased with increasing HPLC retention times ([Lee et al., 2014]; [Zhu et al., 2014]). The HPLC retention times for […]

[14] = tested on: S. aureus; assay: Time killing assay; assay type: cell-based, Staphylococcus aureus; details: mean of three independent assays
Protocol: (§3) The ability of peptides to kill bacterial cells was further investigated by analyzing the fraction of cell survival upon peptide treatment at various exposure times according to a previously described method ([Wiradharma et al., 2012]). Briefly, E. coli and S. aureus were treated at MIC and 2 × MIC concentrations with peptides. At various time periods (0, 5, 10, 30, 60, 90, 120, and 150 min), microbial suspensions were diluted at three different dilutions and plated on MHA plates. Microbial colonies were formed and counted after 24 h of incubation. The results were presented as the mean data from three independent assays.

[15] = tested on: E. coli; assay: Time killing assay; assay type: cell-based, Escherichia coli; details: mean of three independent assays
Protocol: as §3

IHKFWRPGRWFKHI-NH2 [PP]
MIC [1]: 8 µM
MIC [2]: 16 µM
MIC, CaCl2 [2]: 32 µM
MIC, Control [2]: 16 µM
MIC, FeCl3 [2]: 8 µM
MIC, Heat (100°C) [2]: 16 µM
MIC, KCl [2]: 16 µM
MIC, MgCl2 [2]: 16 µM
MIC, NH4Cl [2]: 8 µM
MIC, NaCl [2]: 128 µM
MIC, ZnCl2 [2]: 4 µM
MIC, pH 4.0 [2]: 16 μM
MIC, pH 6.0 [2]: 16 μM
MIC, pH 8.0 [2]: 16 μM
MIC, pH 10.0 [2]: 16 μM
MIC [3]: 4 µM
MIC [4]: 8 µM
MIC [5]: 8 µM
MIC, CaCl2 [5]: 4 µM
MIC, Control [5]: 8 µM
MIC, FeCl3 [5]: 4 µM
MIC, Heat (100°C) [5]: 8 µM
MIC, KCl [5]: 4 µM
MIC, MgCl2 [5]: 2 µM
MIC, NH4Cl [5]: 2 µM
MIC, NaCl [5]: 8 µM
MIC, ZnCl2 [5]: 2 µM
MIC, pH 4.0 [5]: 8 μM
MIC, pH 6.0 [5]: 8 μM
MIC, pH 8.0 [5]: 16 μM
MIC, pH 10.0 [5]: 8 μM
MIC [6]: 4 µM
MIC [7]: 8 µM
MIC [8]: 16 µM
MHC (minimum hemolytic concentration) [9]: >128 µM
MIC [10]: 16 µM
MIC [11]: 4 µM
GM (geometric mean of the MIC values) ([12]; all ten tested strains): 8.0 µM
Therapeutic index ([12]; from MHC and GM): 32.0

CC(C)C[C@H](NC(=O)[C@H](CCCNC(=N)N)NC(=O)CNC(=O)CNC(=O)[C@@H](N)CCCNC(=N)N)C(=O)N[C@H]1CSSC[C@@H](C(=O)N[C@H](C(=O)NCC(=O)N[C@@H](CCCNC(=N)N)C(N)=O)C(C)C)NC(=O)[C@H](C(C)C)NC(=O)[C@@H]2CSSC[C@H](NC(=O)[C@H](Cc3ccc(O)cc3)NC1=O)C(=O)N[C@@H](CCCNC(=N)N)C(=O)N[C@@H](CCCNC(=N)N)C(=O)N[C@@H](CCCNC(=N)N)C(=O)N[C@@H](Cc1ccccc1)C(=O)N2 [PG-1, reference compound]
MIC [1]: 8 µM (≈ 17.2 µg/mL)
MIC [2]: 8 µM (≈ 17.2 µg/mL)
MIC, CaCl2 [2]: 16 µM (≈ 34.5 µg/mL)
MIC, Control [2]: 8 µM (≈ 17.2 µg/mL)
MIC, FeCl3 [2]: 8 µM (≈ 17.2 µg/mL)
MIC, Heat (100°C) [2]: 16 µM (≈ 34.5 µg/mL)
MIC, KCl [2]: 8 µM (≈ 17.2 µg/mL)
MIC, MgCl2 [2]: 8 µM (≈ 17.2 µg/mL)
MIC, NH4Cl [2]: 8 µM (≈ 17.2 µg/mL)
MIC, NaCl [2]: 32 µM (≈ 69 µg/mL)
MIC, ZnCl2 [2]: 8 µM (≈ 17.2 µg/mL)
MIC, pH 4.0 [2]: 8 μM
MIC, pH 6.0 [2]: 8 μM
MIC, pH 8.0 [2]: 8 μM
MIC, pH 10.0 [2]: 16 μM
Retained time (HPLC retention time) [13]: 12.56 min
MIC [3]: 16 µM (≈ 34.5 µg/mL)
MIC [4]: 8 µM (≈ 17.2 µg/mL)
Time to kill S. aureus ([14]; peptide at 1 × MIC): 5 min
Time to kill S. aureus ([14]; peptide at 2 × MIC): 10 min
MIC [5]: 2 µM (≈ 4.31 µg/mL)
MIC, CaCl2 [5]: 4 µM (≈ 8.62 µg/mL)
MIC, Control [5]: 2 µM (≈ 4.31 µg/mL)
MIC, FeCl3 [5]: 4 µM (≈ 8.62 µg/mL)
MIC, Heat (100°C) [5]: 8 µM (≈ 17.2 µg/mL)
MIC, KCl [5]: 2 µM (≈ 4.31 µg/mL)
MIC, MgCl2 [5]: 2 µM (≈ 4.31 µg/mL)
MIC, NH4Cl [5]: 2 µM (≈ 4.31 µg/mL)
MIC, NaCl [5]: 4 µM (≈ 8.62 µg/mL)
MIC, ZnCl2 [5]: 2 µM (≈ 4.31 µg/mL)
MIC, pH 4.0 [5]: 4 μM
MIC, pH 6.0 [5]: 4 μM
MIC, pH 8.0 [5]: 4 μM
MIC, pH 10.0 [5]: 4 μM
MIC [6]: 2 µM (≈ 4.31 µg/mL)
MIC [7]: 16 µM (≈ 34.5 µg/mL)
MIC [8]: 2 µM (≈ 4.31 µg/mL)
MIC [10]: 16 µM (≈ 34.5 µg/mL)
MIC [11]: 2 µM (≈ 4.31 µg/mL)
Time to kill E. coli ([15]; peptide at 1 × MIC): 10 min
Time to kill E. coli ([15]; peptide at 2 × MIC): 10 min

IHKFWRGGRWFKHI-NH2 [GG]
MIC [1]: 64 µM
MIC [2]: 16 µM
Retained time (HPLC retention time) [13]: 10.24 min
MIC [3]: 16 µM
MIC [4]: 16 µM
MIC [5]: 8 µM
MIC [6]: 8 µM
MIC [7]: 32 µM
MIC [8]: 32 µM
MIC [10]: 32 µM
MIC [11]: 8 µM
